Measured values taken from ChEMBL document CHEMBL1155993, “5-(2-Pyrimidinyl)-imidazo[1,2-a]pyridines are antibacterial agents targeting the ATPase domains of DNA gyrase and topoisomerase IV” (Bioorg Med Chem Lett, 2009).
Values after ≈ are worked out from the molar mass of the structure shown.

Key:
Streptococcus pneumoniae [1] = experiment: Antibacterial activity against Streptococcus pneumoniae SP-3 by NCCLS method; assay type: functional
Streptococcus pyogenes [2] = experiment: Antibacterial activity against Streptococcus pyogenes SP1-1 by NCCLS method; assay type: functional
Staphylococcus aureus [3] = experiment: Antibacterial activity against Staphylococcus aureus UC76 by NCCLS method; assay type: functional, organism-based; conditions: read-out: MIC
DNA gyrase subunit B = DNA gyrase subunit B (Streptococcus pneumoniae serotype 4 (strain ATCC BAA-334 / TIGR4), UniProt P0A4L9); experiment: Inhibition of Streptococcus pneumoniae SP-3 gyrB by enzyme coupled phosphate assay
Chain of DNA gyrase subunit B (P0A4L9 whole entry): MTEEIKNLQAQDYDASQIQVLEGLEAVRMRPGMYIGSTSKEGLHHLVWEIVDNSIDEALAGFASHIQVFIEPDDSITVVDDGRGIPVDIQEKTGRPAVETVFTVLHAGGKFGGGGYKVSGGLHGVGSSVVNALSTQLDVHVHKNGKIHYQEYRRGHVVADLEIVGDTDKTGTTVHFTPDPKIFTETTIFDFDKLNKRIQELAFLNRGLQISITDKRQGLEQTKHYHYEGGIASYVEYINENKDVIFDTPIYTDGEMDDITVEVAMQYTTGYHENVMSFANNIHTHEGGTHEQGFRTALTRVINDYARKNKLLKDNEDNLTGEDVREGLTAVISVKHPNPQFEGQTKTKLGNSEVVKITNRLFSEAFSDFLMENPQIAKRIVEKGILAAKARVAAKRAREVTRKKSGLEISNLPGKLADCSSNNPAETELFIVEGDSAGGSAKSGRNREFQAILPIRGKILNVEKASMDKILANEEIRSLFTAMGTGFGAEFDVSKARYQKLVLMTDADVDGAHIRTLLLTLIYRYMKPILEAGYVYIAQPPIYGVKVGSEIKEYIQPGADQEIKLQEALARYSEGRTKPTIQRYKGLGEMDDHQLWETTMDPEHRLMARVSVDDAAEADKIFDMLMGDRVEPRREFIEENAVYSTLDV

Staphylococcus aureus [4] = experiment: Antibacterial activity against methicillin resistant Staphylococcus aureus SA-1417 by NCCLS method; assay type: functional
ParE = target: T1, ParE (Streptococcus pneumoniae, UniProt Q7X1P7); experiment: Inhibition of Streptococcus pneumoniae SP-3 parE after 30 mins
T1 sequence (Q7X1P7 whole entry): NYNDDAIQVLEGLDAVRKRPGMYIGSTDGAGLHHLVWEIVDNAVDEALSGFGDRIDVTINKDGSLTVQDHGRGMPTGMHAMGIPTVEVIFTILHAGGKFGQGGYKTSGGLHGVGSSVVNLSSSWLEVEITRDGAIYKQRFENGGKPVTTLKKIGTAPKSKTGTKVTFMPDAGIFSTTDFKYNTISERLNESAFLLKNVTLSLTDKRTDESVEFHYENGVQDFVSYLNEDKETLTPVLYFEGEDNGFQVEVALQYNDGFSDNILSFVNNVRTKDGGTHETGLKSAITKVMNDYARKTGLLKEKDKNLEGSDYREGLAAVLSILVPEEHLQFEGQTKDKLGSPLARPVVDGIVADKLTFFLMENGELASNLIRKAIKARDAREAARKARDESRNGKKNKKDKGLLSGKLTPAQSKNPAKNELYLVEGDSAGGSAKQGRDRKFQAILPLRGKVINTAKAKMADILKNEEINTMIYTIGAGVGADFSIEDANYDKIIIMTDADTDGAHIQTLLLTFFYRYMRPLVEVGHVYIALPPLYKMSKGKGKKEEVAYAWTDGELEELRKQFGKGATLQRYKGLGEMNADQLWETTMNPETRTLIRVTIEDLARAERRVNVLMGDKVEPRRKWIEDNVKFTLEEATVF

Streptococcus pneumoniae [5] = experiment: Antibacterial activity against fluoroquinolone resistant Streptococcus pneumoniae SP-3765 by NCCLS method; assay type: functional
Streptococcus pyogenes [6] = experiment: Antibacterial activity against Streptococcus pyogenes SP1-1 infected in po dosed mouse sepsis model; assay type: functional; conditions: SP1-1, po, read-out: PD50
[7] = Clearance in rat; assay type: ADME, organism-based; conditions: in vivo
Streptococcus pneumoniae [8] = experiment: Antibacterial activity against Streptococcus pneumoniae SV-1 infected in po dosed mouse lung; assay type: functional; conditions: SV-1, po, read-out: PD50
[9] = Bioavailability in rat; assay type: ADME, organism-based; conditions: in vivo
[10] = Volume of distribution in rat; assay type: ADME, organism-based; conditions: in vivo

Row | Structure (SMILES) | MIC (Streptococcus pneumoniae [1]) [µg/mL] | MIC (Streptococcus pyogenes [2]) [µg/mL] | MIC (Staphylococcus aureus [3]) [µg/mL] | IC50 (DNA gyrase subunit B) [µM] | MIC (Staphylococcus aureus [4]) [µg/mL] | IC50 (ParE) [µM] | MIC (Streptococcus pneumoniae [5]) [µg/mL] | ED50 (Streptococcus pyogenes [6]) [mg/kg] | clearance [7] [mL/min/kg] | ED50 (Streptococcus pneumoniae [8]) [mg/kg] | bioavailability [9] [%] | Vd [10] [L/kg]
1 | CCNC(=O)Nc1cn2c(-c3ncc(C(F)(F)F)cn3)cc(-c3cccnc3)cc2n1 | 0.5 (≈ 1.17 µM) | 1 (≈ 2.34 µM) | 1 (≈ 2.34 µM) | 0.163 | 1 (≈ 2.34 µM) | 0.367 | 0.25 (≈ 0.585 µM) | – | – | – | – | –
2 | CCCn1ccc(-c2cc(-c3ncc(C)cn3)n3cc(NC(=O)NCC)nc3c2)cc1=O | 0.06 (≈ 0.139 µM) | 0.25 (≈ 0.579 µM) | 0.125 (≈ 0.29 µM) | 0.097 | 0.25 (≈ 0.579 µM) | 1.02 | 0.06 (≈ 0.139 µM) | – | – | – | – | –
3 | CCCCNC(=O)Nc1cn2c(-c3ncc(C)cn3)cc(-c3cccnc3)cc2n1 | 2 (≈ 4.98 µM) | 2 (≈ 4.98 µM) | 8 (≈ 19.9 µM) | 0.261 | – | 4.75 | 0.125 (≈ 0.311 µM) | – | – | – | – | –
4 | CCNC(=O)Nc1cn2c(-c3nccc(C)n3)cc(-c3cnc(N(C)C)nc3)cc2n1 | 0.25 (≈ 0.599 µM) | 0.25 (≈ 0.599 µM) | 0.5 (≈ 1.2 µM) | 0.113 | – | 0.424 | 0.125 (≈ 0.299 µM) | – | – | – | – | –
5 | CCNC(=O)Nc1cn2c(-c3nccc(C(=O)OC)n3)cc(-c3cccnc3)cc2n1 | 16 (≈ 38.3 µM) | 32 (≈ 76.7 µM) | 8 (≈ 19.2 µM) | 0.052 | 8 (≈ 19.2 µM) | 0.911 | 16 (≈ 38.3 µM) | – | – | – | – | –
6 | CCNC(=O)Nc1cn2c(-c3ncccn3)cc(-c3ccc(C)nc3)cc2n1 | 0.06 (≈ 0.161 µM) | 0.25 (≈ 0.669 µM) | 0.25 (≈ 0.669 µM) | 0.044 | – | 0.119 | 0.06 (≈ 0.161 µM) | – | – | – | – | –
7 | CCNC(=O)Nc1cn2c(-c3ncc(C)cn3)cc(-c3cnc(OC)nc3)cc2n1 | 16 (≈ 39.6 µM) | 32 (≈ 79.1 µM) | 16 (≈ 39.6 µM) | 0.132 | > 64 | 3.64 | 16 (≈ 39.6 µM) | – | – | – | – | –
8 | CCNC(=O)Nc1cn2c(-c3ncc(C)cn3)cc(-c3ccc(C)nc3)cc2n1 | 0.5 (≈ 1.29 µM) | 0.25 (≈ 0.645 µM) | 0.5 (≈ 1.29 µM) | 0.096 | 1 (≈ 2.58 µM) | 0.373 | 0.25 (≈ 0.645 µM) | – | – | – | – | –
9 | CCNC(=O)Nc1cn2c(-c3ncc(S(C)(=O)=O)cn3)cc(-c3cccnc3)cc2n1 | 8 (≈ 18.3 µM) | 64 (≈ 146 µM) | 64 (≈ 146 µM) | 0.433 | – | 1.83 | 16 (≈ 36.6 µM) | – | – | – | – | –
10 | CCNC(=O)Nc1cn2c(-c3ncc(CC)cn3)cc(-c3cccnc3)cc2n1 | 0.06 (≈ 0.155 µM) | 0.125 (≈ 0.323 µM) | 0.25 (≈ 0.645 µM) | 0.353 | 1 (≈ 2.58 µM) | 0.265 | 0.06 (≈ 0.155 µM) | – | – | – | – | –
11 | CCC(=O)Nc1cn2c(-c3ncc(C)cn3)cc(-c3cccnc3)cc2n1 | 16 (≈ 44.6 µM) | 16 (≈ 44.6 µM) | 64 (≈ 179 µM) | 0.255 | > 64 | 5 | 16 (≈ 44.6 µM) | – | – | – | – | –
12 | CCNC(=O)Nc1cn2c(-c3ncc(C)cn3)cc(-c3cncnc3)cc2n1 | 0.25 (≈ 0.668 µM) | 0.5 (≈ 1.34 µM) | 0.25 (≈ 0.668 µM) | 0.036 | 1 (≈ 2.67 µM) | 0.258 | 0.06 (≈ 0.16 µM) | – | – | – | – | –
13 | CCNC(=O)Nc1cn2c(-c3ncc(C)cn3)cc(-c3ccc(OC)nc3)cc2n1 | 0.25 (≈ 0.62 µM) | 0.5 (≈ 1.24 µM) | 0.5 (≈ 1.24 µM) | 0.117 | 2 (≈ 4.96 µM) | 0.147 | 0.125 (≈ 0.31 µM) | – | – | – | – | –
14 | CCNC(=O)Nc1cn2c(-c3ncc(C(C)C)cn3)cc(-c3cccnc3)cc2n1 | 0.25 (≈ 0.623 µM) | 0.5 (≈ 1.25 µM) | 1 (≈ 2.49 µM) | 1.91 | – | 1.38 | 0.25 (≈ 0.623 µM) | – | – | – | – | –
15 | CCNC(=O)Nc1cn2c(-c3ncc(C)cn3)cc(-c3ccn(CC)c(=O)c3)cc2n1 | 0.06 (≈ 0.144 µM) | 1 (≈ 2.4 µM) | 0.25 (≈ 0.599 µM) | 0.051 | 0.5 (≈ 1.2 µM) | 0.624 | 0.125 (≈ 0.299 µM) | – | – | – | – | –
16 | CCNC(=O)Nc1cn2c(-c3ncc(C)cn3)cc(-c3cccnc3)cc2n1 | 0.125 (≈ 0.335 µM) | 0.5 (≈ 1.34 µM) | 0.5 (≈ 1.34 µM) | 0.053 | 0.5 (≈ 1.34 µM) | 0.25 | 0.125 (≈ 0.335 µM) | 24 | 18 | 21 | 99 | 1.3
17 | CCNC(=O)Nc1cn2c(-c3ncc(C)cn3)cc(-c3ccn(C)c(=O)c3)cc2n1 | 0.06 (≈ 0.149 µM) | 0.125 (≈ 0.31 µM) | 0.5 (≈ 1.24 µM) | – | – | – | 0.06 (≈ 0.149 µM) | – | – | – | – | –
18 | CCNC(=O)Nc1cn2c(-c3ncc(C)cn3)cc(-c3cnc(N(C)C)nc3)cc2n1 | 0.25 (≈ 0.599 µM) | 0.5 (≈ 1.2 µM) | 1 (≈ 2.4 µM) | 0.524 | 4 (≈ 9.58 µM) | 1.38 | 0.125 (≈ 0.299 µM) | – | – | – | – | –
